Experimental data taken from US20250049927A1, “MODIFIED OLIGONUCLEOTIDE-DRUG CONJUGATE AND USE THEREOF” (INTEROLIGO CORPORATION., priority 2021, published 2025).
Non-standard residues stand in square brackets, D forms with d. Residues, ends and D or L forms follow the SMILES beside them. *: point of attachment. Dolaproine = CO[C@@H]([C@@H]1CCCN1)[C@@H](C)C(=O)O; Dil = CC[C@H](C)[C@H](NC)[C@@H](CC(=O)O)OC; X1 = C[C@@H](N*)[C@@H](O)c1ccccc1; NMeV = CN[C@H](C(=O)O)C(C)C

Experiments:
Sprague-Dawley male rats = assay: Death of rats after intravenous administration in the pharmacokinetic study; assay type: in vivo; conditions: MMAE 4 mg/kg intravenous
Protocol: Specifically, Sprague-Dawley male rats (8 weeks old, purchased from Youngbio) were acclimatized for 1 week in the animal room of the Catholic University Songsim Campus, and then pharmacokinetic experiments were performed. Rats were induced with isoflurane, an inhalation anesthetic, and PE50 (polyethylene tubing, Clay Adams, Becton Dickinson, NJ, USA) was inserted into the carotid (for blood collection) and jugular vein (for drug administration), followed by suturing with suture, and then end portions thereof were fixed to the back of the neck. During the surgery, anesthesia was maintained using ether, and about 0.5 mL of physiological saline solution containing heparin (20 units/mL) was injected to prevent blood from coagulating in the cannula. After completing the surgery, each rat was placed in a metabolic cage and allowed to fully recover from the anesthetic (for 4-5 hours). […] All of Example 9, MMAE and gemcitabine were dissolved in physiological saline at 2 mL per kg of body weight and administered into the jugular vein at doses of 40 mg/kg, 4 mg/kg and 2 mg/kg, respectively. […]

[1] = Pharmacokinetic evaluation in rats: plasma MMAE by LC-MS/MS; assay type: in vivo, Sprague-Dawley male rats; conditions: rat, MMAE 4 mg/kg alone intravenous
Protocol: After pretreating samples by protein precipitation, plasma concentration of MMAE was analyzed using liquid chromatography-tandem mass spectrometry (hereinafter referred to as LC-MS/MS) established in the Pharmacology/Pharmacokinetics Laboratory of the Catholic University College of Pharmacy. All analysis processes were conducted under light-shielding conditions.
[…] standard products were dissolved in acetonitrile to prepare a 1 mg/mL of storage solution and store it frozen.

[2] = tested on: BxPC-3 pancreatic cancer cell lines; assay: Pancreatic cancer cell growth inhibition, WST assay; assay type: cell-based; conditions: BxPC-3, 72 hours treatment, absorbance 450 nm
Protocol: The in vitro anticancer efficacy of the modified oligonucleotide-drug conjugates was verified using pancreatic cancer cell lines. Pancreatic cancer cell lines (BxPC-3) were treated with the above-described examples and comparative examples at concentrations of 0, 0.01, 0.1, 1, 10, 100, 500 and 1000 μM, and the specific IC50 measurement method and measurement results are as follows.
All cell lines were cultured in a 5% CO2 incubator at 37° C. The BxPC-3 pancreatic cancer cell lines were cultured using a medium containing 10% FBS and 1% antibiotics put into ATCC modified RPMI-1640 (Thermo Scientific, USA). The medium was replaced once every 2-3 days, and passage-cultured at a time when about 70-90% of a culture dish was filled with the cells. First, the cells were washed with PBS, then 0.05% Trypsin-EDTA was added and cultured at 37° C. for 2 minutes, and then a new medium was added to inactivate trypsin. The cells were separated from trypsin and medium using a centrifuge, then another new medium was added and passaged at a ratio of 1:4, followed by culturing the same. All cells were periodically checked for contamination by mycoplasma using a kit (Intron, Korea), and in vitro efficacy evaluation experiments were conducted using only cells in which contamination was not detected.
Using WST reagent (Dongin LS, Korea), an inhibitory effect on pancreatic cancer cell growth by drug treatment was confirmed and IC50 was measured. An orange coloring substance called formazan is produced in WST by mitochondrial dehydrogenase within cells, which is effective only in living cells. The specific test method is as follows.
The cells cultured by the above-described method were dispensed by 2×10^4 into each well of a 96-well culture vessel and cultured for 24 hours. The medium of the cells attached to the culture vessel was replaced with an ATCC modified RPMI-1640 medium containing 5% FBS, and samples of the above-described modified oligonucleotide-drug conjugates (Examples 1-7 and 9-12, and Comparative Example 1-7, respectively) were treated at concentrations of 0, 0.01, 0.1, 1, 10, 100, 500 and 1000 μM. After 72 hours, 10 μl of WST reagent was added to each well and reacted for 2 hours. The produced formazan was measured with an absorbance at 450 nm using a Glomax plate meter (Promega, USA), and IC50 was evaluated according to the protocol in the device. IC50 evaluation results and graphs illustrating the same are shown in Table 2 below and FIGS. 19 to 27 (in Table 2, M=Gemcitabine, and N=5-FdU).

[3] = tested on: BxPC-3-Luc orthotopic pancreatic cancer; assay: Orthotopic pancreatic cancer animal model, patch-type collagen drug delivery system inserted at tumor site; assay type: in vivo, BALB/c-nude male mice; conditions: 2.0 mg-loading collagen patch; for IVIS whole body image: change in luminescence / dead mice: inserted once; for IVIS whole body image: change in luminescence: 4 weeks; for dead mice: 28 days
Description: To deliver the modified oligonucleotide-drug conjugates to an animal model, high-purity collagen (COLTRIX® Tendoregen, Ubiosis Co., Ltd.) dispersion (1.0%) and samples (e.g., modified oligonucleotide-drug conjugates, gemcitabine, etc.) to be tested were mixed, poured into a circular silicone mold having a diameter of 1 cm, and lyophilized to prepare a “patch-type collagen drug delivery system” in which the samples were loaded in the collagen. Amounts of the samples loaded per patch-type collagen drug delivery system are as shown in Table 3 below (in Table 3, SEQ ID NO: 16 is 5′-(Gem)(Gem)[TGG]4[TTG][TGG]5-3′, wherein Gem-Gemcitabine).
Specifically, each of sample (gemcitabine, IO101L (SEQ ID NO: 16) and modified oligonucleotide-drug conjugates (Example 5 and Example 9) to be tested was added to the high-purity collagen, and then uniformly mixed using a multi-mixer (SLRM-3, MYLAB) at 4° C. for 1 hour. Thereafter, a predetermined amount of the collagen-drug mixture was dispensed into a cylindrical silicone mold having a diameter of 1 cm and the collagen-drug mixture was primary frozen at −20° C. for 4 hours or more. After the first freezing was completed, the sample was separated from the cylindrical silicone mold and transferred to a sterile dish or plate, and then secondary frozen at −80° C. for 2 hours or more. After preliminary freezing so that the cold trap temperature of a lyophilizer was-80° C., the mixture was placed in the lyophilizer and lyophilized for more than 16 hours. The lyophilized mixture was compressed in the form of a patch using an acrylic plate, then was put into an aluminum pouch and sealed. The packaged patch-type collagen drug delivery system was refrigerated at 4° C.
The frozen cancer cell line (BxPC-3-Luc) (Asan Institute for Life Sciences) was thawed, and then cultured in an RPMI1640 medium (Biowest, Cat #. L0498-100) in which 10% fetal bovine serum (Biowest, Cat #. S1480) and 1% antibiotic (Gibco, Cat #. 15240062) were supplied at 37° C. under 5% CO2 condition. The thawed cells were cultured for one week to confirm that there were no problems with the shape, survival rate, and doubling time.
Cancer cells having a cell survival rate of 95% or more were prepared in order to transplant them into mice. The cells were harvested using trypsin, and prepared so as to transplant them into 5×10^5 cells/25 μl/mouse by being turbid in RPMI 1640 media. 6-week old BALB/c-nude male mice stabilized for 1 week (purchased from Jabio, Korea) were subjected to abdominal anesthesia, and the pancreas was taken out by dissecting the abdominal region of each anesthetized mouse and cells of 5×10^5 cells/25 μl were transplanted. After 2 weeks, tumor formation was confirmed through luciferase imaging. […] The patch-type collagen drug delivery system prepared in the above (1) was inserted (intra-abdominal cavity insertion using surgery) into the tumor site of each mouse in the respective groups. All animal experiments included in the present test were performed according to the Institutional Animal Care and Use Committee (IACUC) of the Asan Institute for Life Sciences [2022-14-058].
After inserting the patch-type collagen drug delivery system, changes in the tumor size were observed using IVIS imaging equipment (Xenogen IVIS spectrum system; Caliper Life Science, Inc., Hopkinton, MA) at an interval of 3 times a week for 4 weeks to check the body weight. […]

| Molecule | death of tested rats (Sprague-Dawley male rats) | AUC of MMAE up to 120 minutes higher than Example 9 (IO176) 40 mg/kg group [1] | plasma concentration of MMAE at 1 minute after administration [1] [ng/mL] | AUCt of MMAE ([1]; to final quantification time) [µg·min/mL] | AUC0-120 of MMAE ([1]; up to 120 minutes) [µg·min/mL] | IC50 [2] [nM] | effect of inhibiting tumor (IVIS images, tumor size and weight) [3] | IVIS whole body image: change in luminescence [3] | dead mice [3] |
| --- | --- | --- | --- | --- | --- | --- | --- | --- | --- |
| CC[C@H](C)[C@@H]([C@@H](CC(=O)N1CCC[C@H]1[C@H](OC)[C@@H](C)C(=O)N[C@H](C)[C@@H](O)c1ccccc1)OC)N(C)C(=O)[C@@H](NC(=O)[C@@H](NC)C(C)C)C(C)C [MMAE, Monomethyl auristatin E] (H-[NMeV]V[Dil][Dolaproine]-X1) | all tested 7 rats were died | about 9.70 times | 29640 ± 7190 | 128 ± 16.1 | 71.7 ± 9.61 |  |  |  |  |
| Example 5 (GGTGGTGGTGGNNGNGGTGGTGGTGG; paclitaxel via acrylamide-C6-NH-succinic acid linker on U; modified_base 13 OTHER; deoxyuridine(dU); modified_base 12 OTHER; gemcitabine; modified_base 15 OTHER) |  |  |  |  |  | 100 | excellent effect of inhibiting tumor appeared | changes in the fluorescence were decreased | no dead mouse was observed |
| IO101L: SEQ ID NO: 16, 5′-(Gem)(Gem)[TGG]4[TTG][TGG]5-3′, Gem=Gemcitabine (DNA NNTGGTGGTGGTGGTTGTGGTGGTGGTGGTGG; two 5' gemcitabine nucleotides; modified_base 1 OTHER; gemcitabine; modified_base 2 OTHER) |  |  |  |  |  |  |  | luminescence was gradually increased over time | there were dead mice |
